Reference: patent US20060183901A1, “Crystalline form of an indazole-carboxamide compound” (THERAVANCE, INC., priority 2005, published 2006)

Assays:
[1] = molecular target: T1, hERG cardiac potassium channel (Homo sapiens, UniProt Q12809); experiment: In vitro voltage clamp assay of inhibition of potassium ion current in whole cells expressing hERG; assay type: cell-based; settings: pH 7.4, 5 minutes exposure, CHO-K1 cells
T1 construct: host or cells: CHO-K1
Protocol: Assay 4: In Vitro Voltage Clamp Assay of Inhibition of Potassium Ion Current in Whole Cells Expressing the hERG Cardiac Potassium Channel
CHO-K1 cells stably transfected with hERG cDNA were obtained from Gail Robertson at the University of Wisconsin. Cells were held in cryogenic storage until needed. Cells were expanded and passaged in Dulbecco's Modified Eagles Medium/F 12 supplemented with 10% fetal bovine serum and 200 μg/mL geneticin. Cells were seeded onto poly-D-lysine (100 μg/mL) coated glass coverslips, in 35 mm^2 dishes (containing 2 mL medium) at a density that enabled isolated cells to be selected for whole cell voltage-clamp studies. The dishes were maintained in a humidified, 5% CO2 environment at 37° C.
Extracellular solution was prepared at least every 7 days and stored at 4° C. when not in use. […]
The coverslips on which the cells were seeded were transferred to a recording chamber and perfused continuously. […] Peak current amplitudes during the repolarization phase were determined using pClamp software. […]
Peak current amplitudes during the repolarization phase were determined using pCLAMP software. […] The normalized current means and standard errors for each condition were calculated and plotted versus the time course of the experiment. […]

[2] = molecular target: human 5-HT3A receptor (Homo sapiens, UniProt P46098)
Sequence of human 5-HT3A receptor (P46098 24-478): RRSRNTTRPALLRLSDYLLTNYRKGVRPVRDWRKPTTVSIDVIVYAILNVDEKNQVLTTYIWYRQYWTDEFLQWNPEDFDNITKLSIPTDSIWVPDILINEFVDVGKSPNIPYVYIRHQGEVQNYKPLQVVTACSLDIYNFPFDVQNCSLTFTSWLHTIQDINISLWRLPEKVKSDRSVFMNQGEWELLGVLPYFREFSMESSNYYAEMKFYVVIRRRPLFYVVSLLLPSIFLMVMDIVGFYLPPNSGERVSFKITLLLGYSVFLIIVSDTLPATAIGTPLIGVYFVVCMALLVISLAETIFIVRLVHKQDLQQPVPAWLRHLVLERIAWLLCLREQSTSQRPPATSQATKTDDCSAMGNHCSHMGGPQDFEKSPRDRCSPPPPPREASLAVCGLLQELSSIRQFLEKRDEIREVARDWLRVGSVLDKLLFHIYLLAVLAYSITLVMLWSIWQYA
Protocol: Assay 2: Radioligand Binding Assay on 5-HT3A Human Receptors: Determination of Receptor Subtype Selectivity
Membrane Preparation 5-HT3A
Cells were grown in T-225 flasks or cell factories in 50% Dulbecco's Modified Eagles Medium (DMEM) (GIBCO-Invitrogen Corp., Carlsbad, Calif.: Cat #11965) and 50% Ham's F12 (GIBCO-Invitrogen Corp.: Cat #11765) supplemented with 10% heat inactivated fetal bovine serum (FBS) (Hyclone, Logan, Utah: Cat #SH30070.03) and (50 units) penicillin-(50 μg) streptomycin/ml (GIBCO-Invitrogen Corp.: Cat #15140) in a 5% CO2, humidified incubator at 37° C.
Cells were grown to roughly 70-80% confluency (<35 subculture passages). All steps of the membrane preparation were performed on ice. […]
Radioligand binding assays were performed in 96-well polypropylene assay plates in a total assay volume of 200 μL containing 1.5-2 μg membrane protein in 50 mM HEPES pH 7.4, containing 0.025% BSA assay buffer. […] Non-specific binding was determined in the presence of 10 μM unlabeled MDL72222. […] Filter plates were washed three times with filtration buffer (ice-cold 50 mM HEPES, pH7.4) to remove unbound radioactivity. Plates were dried, 35 μL Microscint-20 liquid scintillation fluid (Packard BioScience Co., Meriden, Conn.) was added to each well and plates were counted in a Packard Topcount liquid scintillation counter (Packard BioScience Co., Meriden, Conn.). […]

[3] = molecular target: human 5-HT4(c) receptor (Homo sapiens, UniProt Q13639); experiment: Whole-cell cAMP accumulation flashplate assay with HEK-293 cells expressing human 5-HT4(c) receptors; assay type: cell-based; parameters: expressed in transfected cells; host or cells: HEK-293
Sequence of human 5-HT4(c) receptor (Q13639 1-380 isoform Q13639-4): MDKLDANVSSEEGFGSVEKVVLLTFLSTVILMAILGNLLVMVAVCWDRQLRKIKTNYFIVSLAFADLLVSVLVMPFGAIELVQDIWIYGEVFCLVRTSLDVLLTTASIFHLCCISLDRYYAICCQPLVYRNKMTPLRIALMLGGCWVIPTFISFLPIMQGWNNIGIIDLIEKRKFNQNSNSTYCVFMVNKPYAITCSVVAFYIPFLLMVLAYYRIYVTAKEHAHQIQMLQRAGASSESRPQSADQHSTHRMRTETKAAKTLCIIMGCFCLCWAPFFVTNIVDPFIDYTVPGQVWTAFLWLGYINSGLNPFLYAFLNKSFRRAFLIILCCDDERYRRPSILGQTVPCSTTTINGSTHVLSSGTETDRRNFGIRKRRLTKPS
Protocol: The plates were sealed and incubated at 4° C. overnight.
Potency data are reported as pEC50 values, the negative decadic logarithm of the EC50 value, where EC50 is the effective concentration for a 50% maximal response.

[4] = test system: Caco-2 cell monolayer; experiment: Caco-2 permeation assay; assay type: in vitro ADME, human; settings: 100 μM, 37° C., 60 min
Protocol: Assay 5: In Vitro Model of Oral Bioavailability: Caco-2 Permeation Assay
The Caco-2 permeation assay was performed to model the ability of test compounds to pass through the intestine and get into the blood stream after oral administration. The rate at which test compounds in solution permeate a cell monolayer designed to mimic the tight junction of human small intestinal monolayers was determined.
Caco-2 (colon, adenocarcinoma; human) cells were obtained from ATCC (American Type Culture Collection; Rockville, Md.). For the permeation study, cells were seeded at a density of 63,000 cells/cm^2 on pre-wetted transwells polycarbonate filters (Costar; Cambridge, Mass.). A cell monolayer was formed after 21 days in culture. Following cell culture in the transwell plate, the membrane containing the cell monolayer was detached from the transwell plate and inserted into the diffusion chamber (Costar; Cambridge, Mass.). The diffusion chamber was inserted into the heating block which was equipped with circulating external, thermostatically regulated 37° C. water for temperature control. […]
The permeation study was performed with test compound concentrations at 100 μM and with ^14C-mannitol to monitor the integrity of the monolayer. […] Samples were analyzed by HPLC or liquid scintillation counting for test compound and mannitol concentrations. The permeation coefficient (Kp) in cm/sec was calculated.

T1 sequence (Q12809 whole entry): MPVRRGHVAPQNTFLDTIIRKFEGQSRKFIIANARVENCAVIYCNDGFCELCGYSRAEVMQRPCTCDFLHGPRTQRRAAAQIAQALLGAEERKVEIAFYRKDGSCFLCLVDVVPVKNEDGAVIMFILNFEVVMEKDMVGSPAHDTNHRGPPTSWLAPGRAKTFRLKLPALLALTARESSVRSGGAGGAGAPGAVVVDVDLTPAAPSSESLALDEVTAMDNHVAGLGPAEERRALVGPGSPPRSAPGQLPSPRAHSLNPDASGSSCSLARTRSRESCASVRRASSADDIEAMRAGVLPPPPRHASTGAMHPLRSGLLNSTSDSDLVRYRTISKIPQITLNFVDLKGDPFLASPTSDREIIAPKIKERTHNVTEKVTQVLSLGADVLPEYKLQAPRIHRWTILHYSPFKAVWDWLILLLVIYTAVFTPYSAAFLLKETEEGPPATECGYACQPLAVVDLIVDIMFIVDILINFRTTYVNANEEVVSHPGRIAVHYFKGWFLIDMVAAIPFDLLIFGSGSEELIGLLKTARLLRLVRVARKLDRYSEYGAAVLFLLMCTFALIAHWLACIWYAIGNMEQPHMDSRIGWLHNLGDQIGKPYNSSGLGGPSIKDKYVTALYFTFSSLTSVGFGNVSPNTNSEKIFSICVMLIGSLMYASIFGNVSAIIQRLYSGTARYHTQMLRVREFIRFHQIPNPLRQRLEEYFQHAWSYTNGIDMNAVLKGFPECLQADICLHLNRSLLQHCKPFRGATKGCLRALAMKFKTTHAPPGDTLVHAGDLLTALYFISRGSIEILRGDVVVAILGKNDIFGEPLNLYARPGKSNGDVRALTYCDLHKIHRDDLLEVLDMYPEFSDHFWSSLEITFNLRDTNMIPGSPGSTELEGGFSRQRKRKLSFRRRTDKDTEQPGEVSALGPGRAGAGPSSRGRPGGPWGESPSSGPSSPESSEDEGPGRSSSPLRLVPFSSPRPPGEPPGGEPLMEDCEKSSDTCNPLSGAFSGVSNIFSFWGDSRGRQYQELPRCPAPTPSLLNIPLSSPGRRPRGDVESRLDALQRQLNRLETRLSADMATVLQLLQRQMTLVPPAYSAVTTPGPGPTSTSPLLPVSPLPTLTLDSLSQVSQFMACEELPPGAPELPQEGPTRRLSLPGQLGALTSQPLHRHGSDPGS

CC(=O)N1CCN(CCN2C3CCC2CC(NC(=O)c2nn(C(C)C)c4ccccc24)C3)CC1 [compound of formula I, 1-isopropyl-1H-indazole-3-carboxylic acid {(1S,3R,5R)-8-[2-(4-acetylpiperazin-1-yl)ethyl]-8-azabicyclo[3.2.1]oct-3-yl}amide]
inhibition at 5 min, 3 µM [1]: < 15%
5-HT4/5-HT3 receptor subtype selectivity, ratio Ki(5-HT3A)/Ki(5-HT4(c)) [2]: greater than 500
EC50 [3]: < 31.6 nM
permeation coefficient Kp [4]: greater than 20×10^−6 cm/sec
